In patent US20240226053A9, “Compositions for ophthalmic care” (ReBio Technologies Oy, priority 2021, published 2024):
Blank lines part the entries; values can stand above or below the compound they belong to.

What was measured:
[1] = tested on: rat eyes; assay: Tolerability of intravitreally injected DMSO in rat eyes; format: in vivo; conditions: intravitreal, 3 μl, 60%, 1/10 and 1/100 dilution, monitored two weeks
Method: In order to test the tolerability of DMSO in eye, DMSO (USP, Ph. Eur.) was injected to the rat eyes intravitreally using 34 G needle The injected volume was 3 μl and three concentrations were injected; 60%, 1/10 dilution, 1/100 dilution. Used Ph. Eur. grade DMSO was 0.2 μm Filter sterilized in Class 5 isolator before the injection.
The rats were monitored for two weeks using the following endpoints: • fundus imaging, including blood vessels • cloudiness and other symptoms in the anterior part of the eye • optic nerve head • state of the vasculature in the posterior eye segment (FAG) • ERG • intraocular pressure • retinal thickness with OCT • histology (in the end)

[2] = Hydrolysis of latanoprost to latanoprost acid in porcine vitreous; format: in vitro ADME
Method: Porcine vitreous was mixed with Hanks' balanced salt solution containing 50 mM Hepes (HBSS-buffer, pH 7.4) at and vitreous mix (200 μl) was pipetted to 96-well plates. The plates were incubated at +37° C. and 5% CO2 with mild shaking for one hour to equilibrate the pH of vitreous into neutral range (pH 7.3-7.5). After incubation, 50 μl of 50 μg/mL latanoprost was added to plates and mixed. The final vitreous/buffer ratio was 1:1 and latanoprost concentration 10 μg/mL Latanoprost was incubated in vitreous at +37° C. and 5% CO2 with mild shaking and samples were collected at time points (0, 1, 2, 4, 6, 24, 29, 48 hours). At each time point the 150 μl of the sample was mixed by vortexing with the 150 μl acetonitrile. The samples were stored at −20° C. until HPLC analysis.
(§1) Hydrolysis of latanoprost was evaluated in buffer and in vitreous with pH adjusted to 7.4.
First hydrolysis of latanoprost was evaluated in buffer and in vitreous with pH adjusted to 7.4 and non pH adjusted.

[3] = Chemical stability of latanoprost in HBSS-buffer; format: physicochemical; conditions: HBSS-buffer pH 7.4, +37° C., 48 h
Method: Chemical stability of latanoprost was studied simultaneously in HBSS-buffer, pH 7.4, using the same protocol but replacing the vitreous with the buffer.
as §1

[4] = Drug release from implant in porcine vitreous vs. PBS; conditions: 35.5° C., 35% PLGA9010/60% DMSO/4% b-HPCD, 180 μg latanoprost
Method: These tests were carried out to ensure that the latanoprost released from the implant would go through hydrolysis to latanoprost acid, which is the active form of the molecule. Purpose of this study was also study the conversion rate of latanoprost to latanoprost acid. In addition, the release of latanoprost from ReBio test formulations was evaluated in vitreous vs. in PBS.
Next the drug release from implant was also tested in porcine vitreous vs. PBS(=phosphate buffered saline).
Formulation composition in this example was 35% PLGA9010/60% DMSO/4% b-HPCD—180 μg Latanoprost.

[5] = Solubility of regorafenib in water and PBS; format: physicochemical
Method: Solubility of regorafenib in water and PBS is negligible. Thus, Tween80 was added in PBS to increase solubility in the dissolution media. Regorafenib in vitro release studies from PGLA/DMSO ISFI were carried out in sink conditions, 2-5 ml PBS pH 7.2 (+Tween80 0.05%) in plastic and glass vessels at 35.5° C. (estimated at 10 mm depth in eye) and 60 rpm, orbit 61 mm in dark.

Structure (SMILES): C[S+](C)[O-] [DMSO, dimethylsulfoxide]
adverse effects in eye [1]: No adverse effect

amount of latanoprost acid in vitreous over time ([2]; porcine vitreous, 48 h experiment): steadily increased | latanoprost acid formation in mere buffer [3]: No latanoprost acid was formed | conversion of released latanoprost to acid form in PBS [4]: did not change to its acid form
Structure (SMILES): CC(C)OC(=O)CCC/C=C\C[C@@H]1[C@@H](CC[C@@H](O)CCc2ccccc2)[C@H](O)C[C@@H]1O [latanoprost, Latanoprost]
rate constant of latanoprost acid formation in vitreous (zero-order kinetics) ([2]; porcine vitreous/HBSS buffer 1:1, pH adjusted to 7.4, +37° C., latanoprost 10 μg/mL, 48 h): 0.111 µg/h

solubility in water and PBS [5]: negligible
Structure (SMILES): CNC(=O)c1cc(Oc2ccc(NC(=O)Nc3ccc(Cl)c(C(F)(F)F)c3)c(F)c2)ccn1 [regorafenib, Regorafenib]
